Patent US7141601B2, “Dendrite elongation inhibitor for melanocyte and skin preparation for external use containing the same” (Pola Chemiocal Industries Inc., priority 2002, dated 2006)

Test system: Normal human melanocyte
Assay: inhibitory action on the elongation of dendrites using human melanocytes
Assay type: cell-based
Text: According to a method shown below, inhibitory action on the elongation of dendrites was examined using human melanocytes. (Reagent, etc.) Cells, basal media, and amplification additives were purchased from KURABO INDUSTRIES LTD. • (Cell) Normal human melanocyte • (Medium) Basal medium (Medium 154S) supplemented with reagents described below • (Reagent) Amplification additive: bovine pituitary extract (BPE) (final concentration of 0.4% v/v in the medium), fetal bovine serum • (FBS) (final concentration of 0.5% v/v in the medium), human recombinant basic fibroblast growth factor (rFGF-B) (final concentration of 3 ng/ml in the medium), hydrocortisone (final concentration of 0.18 μg/ml in the medium), insulin (final concentration 5 μg/ml in the medium), transferrin (final concentration of 5 μg/ml in the medium), phorbol 12-myristate 13-acetate (PMA) (final concentration of 10 ng/ml in the medium), heparin (final concentration of 3 μg/ml in the medium), and PSA solution (mixture solution of penicillin concentration of 50,000 Unit/ml, streptomycin concentration of 50 μg/ml, and amphotericin B concentration of 12.5 μg/ml; 1-ml addition with respect to 500 ml of the medium) (Method)
Compound 1 (methylophiopogonanone B) obtained in the above-described example of production was diluted in a basal medium so that the concentration was brought up to 100 μg/ml, to make a sample solution. […]

With COc1ccc(CC2COc3c(C)c(O)c(C)c(O)c3C2=O)cc1 (centres unmarked) [Compound 1, 2,3-dihydro-3-[(4-methoxyphenyl)methyl]-5,7-dihydroxy-6,8-dimethyl-4H-1-benzopyran-4-on] the Length of dendrite (50 μl of 100 μg/ml sample solution added to 200 μl medium, observed 24 hours after addition, growth factors in medium) was 22 ± 6 μm and the “inhibition against the elongation of dendrites (in words)” value (vs control with basal medium only, 24 hours after addition) was “elongation is inhibited”.
